Paper PMC9149975, “The diaryl-imidazopyridazine anti-plasmodial compound, MMV652103, exhibits anti-breast cancer activity” (EXCLI Journal, 2022)
Like-named read-outs stand apart in the source and are kept apart here.

How the values were obtained:
[1] = Solubility in DMSO at 10 mM; assay type: physicochemical; details: final concentration 10 mM
[2] = test system: MCF7 (breast cancer cell line); experiment: MTT cytotoxicity assay, MCF7; assay type: cell-based, human; details: for IC50: Homo sapiens
From the text: Human estrogen-receptor positive (ER+) breast adenocarcinoma cell lines, MCF7 and T47D, were maintained in Roswell Park Memorial Institute-1640 medium (Sigma Aldrich, Missouri, USA) and the human epidermal growth factor receptor 2 positive (HER2+) BT474, and triple negative (TNBC) MDA-MB-231 and MDA-MB-468 cells were maintained in Dulbecco's Modified Eagle's Medium (DMEM) (Sigma Aldrich, Missouri, USA). FG0 human skin fibroblasts (provided by Associate Professor Denver Hendricks, University of Cape Town) were maintained in DMEM while the normal breast epithelial cell line MCF12A was maintained in DMEM:nutrient mixture F-12 (DMEM/F12; 1:1; Sigma Aldrich, Missouri, USA), supplemented with 20 ng/ml epidermal growth factor, 100 ng/ml cholera toxin, 500 ng/ml hydrocortisone and 10 µg/ml insulin. All media were supplemented with 10 % fetal bovine serum, 100 U/ml penicillin and 100 µg/ml streptomycin. Cells were maintained at 37 °C in a 5 % CO2 and 95 % air-humidified incubator. Media was replaced every 2-3 days and cells were routinely tested for mycoplasma infection.
(§1) Cells (3.5×10^3-6×10^3 / well) were seeded in 96-well plates and treated at a 60-70 % confluence with a range of concentrations (0-10 μM) of test compounds or vehicle for 48 h. Cell viability was measured using the 3-(4,5-dimethylthiazol-2-yl)-2,5-diphenyl-trazolium bromide (MTT) assay (11465007001; Sigma Aldrich) according to the manufacturer's instructions. Mean cell viability was calculated as a percentage of the mean vehicle control. A minimum of three independent experiments in quadruplicate were performed from which the IC50 was determined from sigmoidal plots using GraphPad Prism version 6.0 (GraphPad Software, California, USA). The selectivity index (SI) was determined by dividing the IC50 of a non-malignant cell line by the IC50 of a cancer cell line.
Briefly, the cells were treated with a range of concentrations (2 - 20 µM) of each compound or vehicle (DMSO) for 48 h and MTT assays were performed. […] Based on the promising IC50 and SI values obtained for MMV652103, it was chosen for further studies.

[3] = test system: BT474 (HER2+) breast cancer cells; experiment: MTT cytotoxicity assay, BT474; assay type: cell-based; details: Homo sapiens, BT-474
Method: (§2) Human estrogen-receptor positive (ER+) breast adenocarcinoma cell lines, MCF7 and T47D, were maintained in Roswell Park Memorial Institute-1640 medium (Sigma Aldrich, Missouri, USA) and the human epidermal growth factor receptor 2 positive (HER2+) BT474, and triple negative (TNBC) MDA-MB-231 and MDA-MB-468 cells were maintained in Dulbecco's Modified Eagle's Medium (DMEM) (Sigma Aldrich, Missouri, USA). […]
as §1

[4] = test system: MDA-MB-231 (TNBC) breast cancer cells; experiment: MTT cytotoxicity assay, MDA-MB-231; assay type: cell-based; details: Homo sapiens
Method: as §2, §1

[5] = test system: FG0 human skin fibroblasts; experiment: MTT cytotoxicity assay, FG0; assay type: cell-based; details: Skin fibroblast
Method: as §2, §1

PIK3C2A = molecular target: T1, PIK3C2A (Homo sapiens, UniProt O00443); experiment: ADP-Glo lipid kinase assay, PIK3C2A; assay type: biochemical; details: 10 µM compound
T1 construct: purchased Carna Biosciences Inc; Invitrogen Corporation

PIK3C3 = molecular target: T2, PIK3C3 (Homo sapiens, UniProt Q8NEB9); experiment: ADP-Glo lipid kinase assay, PIK3C3; assay type: biochemical; details: 10 µM compound
T2 construct: purchased Carna Biosciences Inc; Invitrogen Corporation

MCF7 cells [6] = experiment: Clonogenic survival assay, MCF7; assay type: cell-based, human; details: IC50, 2 x IC50, 4 x IC50 for 24 h
Method: Cells were pre-cultured and treated with the indicated concentrations of MMV652103 for 24 h, washed, collected and re-plated, in drug-free medium, at 1000-2000 cells per well in 35 mm dishes, in triplicate. After 10-21 days the surviving cells were fixed with 3:1 methanol: acetic acid and stained with 0.5 % crystal violet (Sigma-Aldrich, USA) in 100 % methanol. Quantification of colonies was performed using ImageJ 1.5J8 software (USA) (Schneider et al., 2012[73]). Number of colonies was determined for each drug concentration and expressed as a percentage of the vehicle treated control.

MCF7 cells [7] = experiment: ROS-Glo H2O2 assay; assay type: cell-based, human; details: MCF7, 24 h, ½ IC50 and IC50
Method: To determine whether MMV652103 induced oxidative stress in breast cancer cells, the levels of H2O2 were measured using the ROS-Glo™ H2O2 assay kit (G8820, Promega, Wisconsin, USA), according to the manufacturer's instructions. Briefly, cells (2500-4500 cells per well) were seeded in opaque 96 well plates. Cells were treated for 24 h with either vehicle or MMV652103 in a volume of 80 μl per well. After 18 h of incubation, 20 μl H2O2 Substrate Solution was added to each well. After 24 h of incubation 100 μl ROS-Glo™ Detection Solution (prepared by mixing 10 ml Luciferin Detection Reagent, 100 μl D-Cysteine and 100 μl Signal Enhancer Solution) was added to each well and incubated at RT for 20 min. After incubation, the luminescence was read using the GloMax® Explorer Multimode plate reader (Promega, Wisconsin, USA).

chick embryos = experiment: Chick embryo CAM model: toxicity to the embryo; assay type: in vivo; details: 4.4 μM and 22 μM
From the text: At stage E9, the chorioallantoic membrane (CAM) was dropped by drilling a small hole through the eggshell into the air sac and a 1 cm^2 window was cut in the eggshell above the CAM. Cultured MCF7 cells were detached with trypsin, washed with complete medium and suspended in PBS. […] At E18 the upper portion of the CAM was removed, transferred to PBS and the tumors cut away from normal CAM tissue and weighed. A one-way ANOVA analysis with post-tests was done. In parallel, a 1 cm^2 portion of the lower CAM was collected to evaluate the number of metastatic cells. The relative amount of metastasis was calculated as follows: Tumor cells were grafted onto the upper chorioallantoic membrane (CAM) and during metastasis the cells invade the epithelium and basement membrane of the upper CAM and move through connective tissue into the vasculature into the lower CAM. The cells in the lower CAM are then harvested and genomic DNA is extracted and analyzed by qPCR with specific primers for Alu sequences which are only found in higher primates i.e. it allows for the distinction between human tumor cells and the host chick cells. Statistical analysis was directly performed on data from the Bio-Rad CFX Manager 3.1 software.

T1 sequence (O00443 whole entry): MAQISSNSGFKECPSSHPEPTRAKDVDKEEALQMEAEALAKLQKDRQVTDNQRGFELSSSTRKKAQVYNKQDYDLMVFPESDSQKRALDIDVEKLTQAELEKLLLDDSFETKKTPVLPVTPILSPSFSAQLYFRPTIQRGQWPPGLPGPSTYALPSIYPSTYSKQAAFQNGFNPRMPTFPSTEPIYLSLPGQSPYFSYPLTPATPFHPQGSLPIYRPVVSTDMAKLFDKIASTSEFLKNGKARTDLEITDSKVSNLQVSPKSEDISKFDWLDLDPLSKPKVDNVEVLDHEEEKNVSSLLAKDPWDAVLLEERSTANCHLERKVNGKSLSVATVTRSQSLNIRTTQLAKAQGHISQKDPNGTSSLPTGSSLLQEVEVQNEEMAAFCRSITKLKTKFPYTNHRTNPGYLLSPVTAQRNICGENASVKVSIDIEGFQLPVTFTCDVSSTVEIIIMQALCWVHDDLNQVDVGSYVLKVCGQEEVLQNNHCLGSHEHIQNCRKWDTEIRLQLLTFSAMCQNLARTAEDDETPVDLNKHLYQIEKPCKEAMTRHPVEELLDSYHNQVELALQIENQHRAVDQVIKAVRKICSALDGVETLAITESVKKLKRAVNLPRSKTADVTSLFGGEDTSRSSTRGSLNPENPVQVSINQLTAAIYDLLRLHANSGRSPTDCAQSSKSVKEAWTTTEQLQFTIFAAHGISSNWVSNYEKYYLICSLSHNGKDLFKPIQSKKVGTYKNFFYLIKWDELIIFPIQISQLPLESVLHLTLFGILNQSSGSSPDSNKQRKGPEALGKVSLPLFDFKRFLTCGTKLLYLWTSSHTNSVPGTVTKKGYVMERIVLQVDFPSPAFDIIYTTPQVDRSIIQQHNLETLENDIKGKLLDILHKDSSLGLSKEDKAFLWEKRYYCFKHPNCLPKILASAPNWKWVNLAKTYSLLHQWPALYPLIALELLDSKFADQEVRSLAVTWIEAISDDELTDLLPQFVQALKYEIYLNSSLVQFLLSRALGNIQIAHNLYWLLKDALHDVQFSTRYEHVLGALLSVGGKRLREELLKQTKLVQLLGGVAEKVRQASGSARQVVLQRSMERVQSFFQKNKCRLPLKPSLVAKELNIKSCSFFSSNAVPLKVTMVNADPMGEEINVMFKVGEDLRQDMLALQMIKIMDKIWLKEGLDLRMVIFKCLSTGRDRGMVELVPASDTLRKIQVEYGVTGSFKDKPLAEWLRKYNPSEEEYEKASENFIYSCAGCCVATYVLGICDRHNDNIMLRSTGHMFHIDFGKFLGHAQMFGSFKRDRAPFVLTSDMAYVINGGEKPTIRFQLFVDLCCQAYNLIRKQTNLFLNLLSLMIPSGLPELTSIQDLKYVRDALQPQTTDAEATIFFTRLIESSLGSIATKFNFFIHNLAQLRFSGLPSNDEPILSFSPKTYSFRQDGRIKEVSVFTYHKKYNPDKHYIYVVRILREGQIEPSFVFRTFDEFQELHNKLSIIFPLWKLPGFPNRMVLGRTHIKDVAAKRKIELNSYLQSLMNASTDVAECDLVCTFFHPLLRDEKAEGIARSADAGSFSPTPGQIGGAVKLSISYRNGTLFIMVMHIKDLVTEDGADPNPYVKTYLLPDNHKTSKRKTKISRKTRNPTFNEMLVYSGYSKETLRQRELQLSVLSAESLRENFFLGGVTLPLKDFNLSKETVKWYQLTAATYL
T2 sequence (Q8NEB9 whole entry): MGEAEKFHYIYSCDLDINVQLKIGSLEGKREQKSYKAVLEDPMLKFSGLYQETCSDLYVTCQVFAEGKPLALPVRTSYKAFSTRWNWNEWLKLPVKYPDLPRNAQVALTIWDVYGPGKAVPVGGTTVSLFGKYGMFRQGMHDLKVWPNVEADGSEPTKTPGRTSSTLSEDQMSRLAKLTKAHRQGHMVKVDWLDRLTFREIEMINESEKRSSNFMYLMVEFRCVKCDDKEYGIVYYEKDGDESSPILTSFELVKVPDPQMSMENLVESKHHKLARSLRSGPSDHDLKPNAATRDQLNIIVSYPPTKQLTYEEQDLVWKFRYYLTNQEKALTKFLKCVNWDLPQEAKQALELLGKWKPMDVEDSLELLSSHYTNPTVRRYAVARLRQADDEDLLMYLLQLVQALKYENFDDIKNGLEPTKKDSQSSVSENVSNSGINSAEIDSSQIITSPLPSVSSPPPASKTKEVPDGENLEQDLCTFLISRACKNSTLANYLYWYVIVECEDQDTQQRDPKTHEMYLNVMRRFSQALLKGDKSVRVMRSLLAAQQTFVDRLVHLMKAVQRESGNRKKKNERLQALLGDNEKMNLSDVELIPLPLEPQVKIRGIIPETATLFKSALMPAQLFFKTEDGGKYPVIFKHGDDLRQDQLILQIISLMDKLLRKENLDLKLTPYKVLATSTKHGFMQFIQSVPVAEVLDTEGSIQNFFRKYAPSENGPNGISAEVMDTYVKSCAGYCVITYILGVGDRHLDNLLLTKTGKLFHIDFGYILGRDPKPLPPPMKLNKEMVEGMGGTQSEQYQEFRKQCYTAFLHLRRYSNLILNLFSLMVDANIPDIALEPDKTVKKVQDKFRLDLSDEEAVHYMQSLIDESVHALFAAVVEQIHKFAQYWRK

## CS(=O)(=O)c1ccc(-c2cnc3ccc(-c4cccc(S(C)(=O)=O)c4)nn23)cc1 [MMV652103]
[1]
  Solubility (DMSO): soluble in DMSO
[1]; listed as 652103
  Solubility (DMSO): Successful
[2]; MCF7, Fig 2C summary, MTT 48 h, read-out: IC50 ± SEM MCF7
  IC50: 2.2 ± 1.15 µM
[2]; MCF7, MTT, 48 h, read-out: Cytotoxicity assays (MTT) IC50 MCF7
  IC50: 2.2 µM
[2]; average of MCF7 and T47D, read-out: average IC50 in the ER+ cell lines MCF7 and T47D
  IC50: 2.5 µM
[2]; selectivity index, MCF12A vs MCF7
  SI IC50 MCF12A / IC50 MCF7: 3.02
[3]; Fig 2C summary, MTT 48 h, read-out: IC50 ± SEM BT474
  IC50: 7.3 ± 1.05 µM
[3]; MTT, 48 h, read-out: IC50 BT474
  IC50: 7.3 µM
[4]; Fig 2C summary, MTT 48 h, read-out: IC50 ± SEM MDA-MB-231
  IC50: 14.3 ± 1.03 µM
[4]; MTT, 48 h, read-out: IC50 MDA-MB-231
  IC50: 14.3 µM
[5]; Fig 2C summary, MTT 48 h, read-out: IC50 ± SEM FG0
  IC50: > 10 µM
[5]; MTT, 48 h, exact IC50 not reached, predicted, read-out: IC50 FG0
  IC50: > 10 µM
PIK3C2A
  remaining activity at 10 µM: 39%
PIK3C3
  remaining activity at 10 µM: 24%
MCF7 cells [6]
  number of MCF7 cell colonies: dose-dependent reduction
MCF7 cells [7]
  levels of H2O2: significant increase
Chick embryos
  death ratio of chick embryos: did not result in an abnormal death ratio
Chick embryos; results not shown
  macroscopic abnormalities of chick embryos: nor did it lead to any macroscopic abnormalities
